Reference: patent US8927717B1, “Thiochromeno[2,3-c]quinolin-12-one derivatives, preparation method and application thereof” (National Defense Medical Center, priority 2014, dated 2015)

Tests used:
[1] = biological target: T1, TOP II (Topoisomerase II) (Homo sapiens, UniProt P11388); assay: TOP II-catalyzed relaxation of plasmid DNA assay; assay type: biochemical
T1 construct: purchased TopoGEN TG-2000H-1
Protocol: We also performed TOP II-catalyzed relaxation of plasmid DNA assays (FIG. 5-7) to evaluate if compounds could inhibit TOP II. […] The IC50 value of compounds 7, N7, N8, N14, N15, N18, and N19 were about 10, 10, 1, 10, 5, 1, and 1 μM, respectively (detect by TopoGEN TG2005H, TG-2000H-1).

[2] = system: CCRF-CEM; assay type: cell-based; conditions: Leukemia; 10^−5 molar; 48 hours; SRB
[3] = system: HL-60(TB); assay type: cell-based; conditions: Leukemia; 10^−5 molar; 48 hours; SRB
[4] = system: K-562; assay type: cell-based; conditions: Leukemia; 10^−5 molar; 48 hours; SRB
[5] = system: MOLT-4; assay type: cell-based; conditions: Leukemia; 10^−5 molar; 48 hours; SRB
[6] = system: RPMI-8226; assay type: cell-based; conditions: Leukemia; 10^−5 molar; 48 hours; SRB
[7] = system: SR; assay type: cell-based; conditions: Leukemia; 10^−5 molar; 48 hours; SRB
[8] = system: A549/ATCC; assay type: cell-based; conditions: Non-small cell lung cancer; 10^−5 molar; 48 hours; SRB
[9] = system: HOP-62; assay type: cell-based; conditions: Non-small cell lung cancer; 10^−5 molar; 48 hours; SRB
[10] = system: HOP-92; assay type: cell-based; conditions: Non-small cell lung cancer; 10^−5 molar; 48 hours; SRB
[11] = system: NCI-H226; assay type: cell-based; conditions: Non-small cell lung cancer; 10^−5 molar; 48 hours; SRB
[12] = system: NCI-H23; assay type: cell-based; conditions: Non-small cell lung cancer; 10^−5 molar; 48 hours; SRB
[13] = system: NCI-H460; assay type: cell-based; conditions: Non-small cell lung cancer; 10^−5 molar; 48 hours; SRB
[14] = system: NCI-H522; assay type: cell-based; conditions: Non-small cell lung cancer; 10^−5 molar; 48 hours; SRB
[15] = system: COLO 205; assay type: cell-based; conditions: Colon cancer; 10^−5 molar; 48 hours; SRB
[16] = system: HCC-2998; assay type: cell-based; conditions: Colon cancer; 10^−5 molar; 48 hours; SRB
[17] = system: HCT-116; assay type: cell-based; conditions: Colon cancer; 10^−5 molar; 48 hours; SRB
[18] = system: HCT-15; assay type: cell-based; conditions: Colon cancer; 10^−5 molar; 48 hours; SRB
[19] = system: HT29; assay type: cell-based; conditions: Colon cancer; 10^−5 molar; 48 hours; SRB
[20] = system: KM12; assay: cells; assay type: cell-based; conditions: Colon cancer; 10^−5 molar; 48 hours; SRB
[21] = system: SW-620; assay type: cell-based; conditions: Colon cancer; 10^−5 molar; 48 hours; SRB
[22] = system: SF-268; assay type: cell-based; conditions: CNS cancer; 10^−5 molar; 48 hours; SRB
[23] = system: SF-295; assay type: cell-based; conditions: CNS cancer; 10^−5 molar; 48 hours; SRB
[24] = system: SF-539; assay type: cell-based; conditions: CNS cancer; 10^−5 molar; 48 hours; SRB
[25] = system: SNB-19; assay type: cell-based; conditions: CNS cancer; 10^−5 molar; 48 hours; SRB
[26] = system: SNB-75; assay type: cell-based; conditions: CNS cancer; 10^−5 molar; 48 hours; SRB
[27] = system: U251; assay type: cell-based; conditions: CNS cancer; 10^−5 molar; 48 hours; SRB
[28] = system: LOX IMVI; assay type: cell-based; conditions: Melanoma; 10^−5 molar; 48 hours; SRB
[29] = system: MALME-3M; assay type: cell-based; conditions: Melanoma; 10^−5 molar; 48 hours; SRB
[30] = system: M14; assay type: cell-based; conditions: Melanoma; 10^−5 molar; 48 hours; SRB
[31] = system: MDA-MB-435; assay type: cell-based; conditions: Melanoma; 10^−5 molar; 48 hours; SRB
[32] = system: SK-MEL-2; assay type: cell-based; conditions: Melanoma; 10^−5 molar; 48 hours; SRB
[33] = system: SK-MEL-28; assay type: cell-based; conditions: Melanoma; 10^−5 molar; 48 hours; SRB
[34] = system: SK-MEL-5; assay type: cell-based; conditions: Melanoma; 10^−5 molar; 48 hours; SRB
[35] = system: UACC-257; assay type: cell-based; conditions: Melanoma; 10^−5 molar; 48 hours; SRB
[36] = system: UACC-62; assay type: cell-based; conditions: Melanoma; 10^−5 molar; 48 hours; SRB
[37] = system: IGROV1; assay type: cell-based; conditions: Ovarian cancer; 10^−5 molar; 48 hours; SRB
[38] = system: OVCAR-3; assay type: cell-based; conditions: Ovarian cancer; 10^−5 molar; 48 hours; SRB
[39] = system: OVCAR-4; assay type: cell-based; conditions: Ovarian cancer; 10^−5 molar; 48 hours; SRB
[40] = system: OVCAR-5; assay type: cell-based; conditions: Ovarian cancer; 10^−5 molar; 48 hours; SRB
[41] = system: OVCAR-8; assay type: cell-based; conditions: Ovarian cancer; 10^−5 molar; 48 hours; SRB
[42] = system: NCI/ADR-RES; assay type: cell-based; conditions: Ovarian cancer; 10^−5 molar; 48 hours; SRB
[43] = system: SK-OV-3; assay type: cell-based; conditions: Ovarian cancer; 10^−5 molar; 48 hours; SRB
[44] = system: 786-0; assay type: cell-based; conditions: Renal cancer; 10^−5 molar; 48 hours; SRB
[45] = system: A498; assay type: cell-based; conditions: Renal cancer; 10^−5 molar; 48 hours; SRB
[46] = system: ACHN; assay type: cell-based; conditions: Renal cancer; 10^−5 molar; 48 hours; SRB
[47] = system: CAKI-1; assay type: cell-based; conditions: Renal cancer; 10^−5 molar; 48 hours; SRB
[48] = system: RXF 393; assay type: cell-based; conditions: Renal cancer; 10^−5 molar; 48 hours; SRB
[49] = system: SN12C; assay type: cell-based; conditions: Renal cancer; 10^−5 molar; 48 hours; SRB
[50] = system: TK-10; assay type: cell-based; conditions: Renal cancer; 10^−5 molar; 48 hours; SRB
[51] = system: UO-31; assay type: cell-based; conditions: Renal cancer; 10^−5 molar; 48 hours; SRB
[52] = system: PC-3; assay type: cell-based; conditions: Prostate cancer; 10^−5 molar; 48 hours; SRB
[53] = system: DU-145; assay type: cell-based; conditions: Prostate cancer; 10^−5 molar; 48 hours; SRB
[54] = system: MCF7; assay type: cell-based; conditions: Breast cancer; 10^−5 molar; 48 hours; SRB
[55] = system: MDA-MB-231/ATCC; assay type: cell-based; conditions: Breast cancer; 10^−5 molar; 48 hours; SRB
[56] = system: HS 578T; assay type: cell-based; conditions: Breast cancer; 10^−5 molar; 48 hours; SRB
[57] = system: BT-549; assay type: cell-based; conditions: Breast cancer; 10^−5 molar; 48 hours; SRB
[58] = system: T-47D; assay type: cell-based; conditions: Breast cancer; 10^−5 molar; 48 hours; SRB
[59] = system: MDA-MB-486; assay type: cell-based; conditions: Breast cancer; 10^−5 molar; 48 hours; SRB
[60] = system: 60 cancer cell lines; assay: NCI 60-cell screen, SRB, whole panel (mean, delta, range); assay type: cell-based; conditions: 10^−5 molar, 48 hours, SRB

T1 sequence (P11388 whole entry): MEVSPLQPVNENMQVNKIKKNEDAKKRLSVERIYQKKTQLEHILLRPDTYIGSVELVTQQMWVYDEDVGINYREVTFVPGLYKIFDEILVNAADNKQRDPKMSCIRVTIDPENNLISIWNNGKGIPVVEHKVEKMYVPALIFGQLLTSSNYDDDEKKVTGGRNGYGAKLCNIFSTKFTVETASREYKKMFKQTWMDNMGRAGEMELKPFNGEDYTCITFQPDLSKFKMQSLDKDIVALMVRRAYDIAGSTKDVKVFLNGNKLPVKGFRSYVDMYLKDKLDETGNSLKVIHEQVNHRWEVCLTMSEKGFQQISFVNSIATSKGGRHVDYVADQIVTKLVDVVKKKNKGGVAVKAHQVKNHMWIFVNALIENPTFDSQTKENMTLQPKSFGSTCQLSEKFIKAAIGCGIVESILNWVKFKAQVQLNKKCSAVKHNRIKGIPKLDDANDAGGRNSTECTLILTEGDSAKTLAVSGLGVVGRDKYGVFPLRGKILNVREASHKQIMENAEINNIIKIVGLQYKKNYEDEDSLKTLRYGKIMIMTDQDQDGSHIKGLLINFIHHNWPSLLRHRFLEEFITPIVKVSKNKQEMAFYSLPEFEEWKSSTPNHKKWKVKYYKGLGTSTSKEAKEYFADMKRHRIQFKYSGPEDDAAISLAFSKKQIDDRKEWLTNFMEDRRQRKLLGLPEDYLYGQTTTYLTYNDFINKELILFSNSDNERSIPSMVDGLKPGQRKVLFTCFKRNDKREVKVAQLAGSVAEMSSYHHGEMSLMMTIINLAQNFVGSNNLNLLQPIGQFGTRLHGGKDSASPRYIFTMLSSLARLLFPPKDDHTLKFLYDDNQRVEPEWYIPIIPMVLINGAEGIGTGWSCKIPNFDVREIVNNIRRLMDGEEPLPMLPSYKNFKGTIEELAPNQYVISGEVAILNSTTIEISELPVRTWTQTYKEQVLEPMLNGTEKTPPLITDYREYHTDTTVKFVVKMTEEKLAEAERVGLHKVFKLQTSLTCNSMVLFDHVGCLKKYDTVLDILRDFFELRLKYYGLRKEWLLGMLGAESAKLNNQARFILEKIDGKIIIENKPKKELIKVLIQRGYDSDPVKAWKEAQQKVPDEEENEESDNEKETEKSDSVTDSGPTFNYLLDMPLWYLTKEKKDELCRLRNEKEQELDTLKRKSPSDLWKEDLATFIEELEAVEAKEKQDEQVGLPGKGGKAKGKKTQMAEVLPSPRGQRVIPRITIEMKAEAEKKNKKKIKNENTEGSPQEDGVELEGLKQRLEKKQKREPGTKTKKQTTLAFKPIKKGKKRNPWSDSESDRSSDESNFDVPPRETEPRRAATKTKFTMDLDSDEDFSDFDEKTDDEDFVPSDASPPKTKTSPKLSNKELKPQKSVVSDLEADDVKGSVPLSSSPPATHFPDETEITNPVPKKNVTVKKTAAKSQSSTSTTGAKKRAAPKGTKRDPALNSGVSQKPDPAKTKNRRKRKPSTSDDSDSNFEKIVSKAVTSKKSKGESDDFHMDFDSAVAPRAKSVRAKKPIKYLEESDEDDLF

SMILES: CCN(CC)CCNc1nc2ccccc2c2c(=O)c3cc(Cl)ccc3sc12 [Compound N8, 10-Chloro-6-((2-(diethylamino)ethyl)amino)-12H-thiochromeno[2,3-c]quinolin-12-one]
- IC50 ([1]; five different concentrations, TopoGEN TG2005H, TG-2000H-1, read-out: IC50 value, TOP II mediated supercoiled DNA relaxation): ~1000 nM
- inhibitory effect in TOP II relaxation assay compared with VP-16 ([1]; primary assay at 25 and/or 50 μM): more potent inhibitory effects than the positive agent VP-16
- melting point: 152 to 153 °C

SMILES: O=c1c2ccc(Cl)cc2sc2c(Cl)nc3ccccc3c12 [Compound 3, 6,9-Dichloro-12H-thiochromeno[2,3-c]quinolin-12-one]
- Growth percent CCRF-CEM [2]: 93.12%
- Growth percent HL-60(TB) [3]: 99.34%
- Growth percent K-562 [4]: 101.04%
- Growth percent MOLT-4 [5]: 98.04%
- Growth percent RPMI-8226 [6]: 100.19%
- Growth percent SR [7]: 89.02%
- Growth percent A549/ATCC [8]: 104.74%
- Growth percent HOP-62 [9]: 82.02%
- Growth percent HOP-92 [10]: 90.83%
- Growth percent NCI-H226 [11]: 83.41%
- Growth percent NCI-H23 [12]: 85.12%
- Growth percent NCI-H460 [13]: 103.14%
- Growth percent NCI-H522 [14]: 96.81%
- Growth percent COLO 205 [15]: 112.15%
- Growth percent HCC-2998 [16]: 123.28%
- Growth percent HCT-116 [17]: 102.27%
- Growth percent HCT-15 [18]: 102.28%
- Growth percent HT29 [19]: 99.73%
- Growth percent KM12 [20]: 111.27%
- Growth percent SW-620 [21]: 99.06%
- Growth percent SF-268 [22]: 109.60%
- Growth percent SF-295 [23]: 90.26%
- Growth percent SF-539 [24]: 89.02%
- Growth percent SNB-19 [25]: 107.89%
- Growth percent SNB-75 [26]: 77.88%
- Growth percent U251 [27]: 101.71%
- Growth percent LOX IMVI [28]: 90.53%
- Growth percent MALME-3M [29]: 95.87%
- Growth percent M14 [30]: 106.18%
- Growth percent MDA-MB-435 [31]: 100.64%
- Growth percent SK-MEL-2 [32]: 95.54%
- Growth percent SK-MEL-28 [33]: 101.80%
- Growth percent SK-MEL-5 [34]: 97.42%
- Growth percent UACC-257 [35]: 104.47%
- Growth percent UACC-62 [36]: 89.69%
- Growth percent IGROV1 [37]: 96.06%
- Growth percent OVCAR-3 [38]: 111.27%
- Growth percent OVCAR-4 [39]: 87.91%
- Growth percent OVCAR-5 [40]: 100.07%
- Growth percent OVCAR-8 [41]: 101.62%
- Growth percent NCI/ADR-RES [42]: 102.80%
- Growth percent SK-OV-3 [43]: 101.32%
- Growth percent 786-0 [44]: 105.25%
- Growth percent A498 [45]: 106.06%
- Growth percent ACHN [46]: 86.84%
- Growth percent CAKI-1 [47]: 94.31%
- Growth percent RXF 393 [48]: 102.55%
- Growth percent SN12C [49]: 95.92%
- Growth percent TK-10 [50]: 108.56%
- Growth percent UO-31 [51]: 66.06%
- Growth percent PC-3 [52]: 91.59%
- Growth percent DU-145 [53]: 114.27%
- Growth percent MCF7 (Table 2: MCF) [54]: 82.58%
- Growth percent MDA-MB-231/ATCC [55]: 84.28%
- Growth percent HS 578T [56]: 95.14%
- Growth percent BT-549 [57]: 110.01%
- Growth percent T-47D [58]: 110.10%
- Growth percent MDA-MB-486 [59]: 98.57%
- Growth percent, Delta ([60]; delta over the cell panel): 32.05%
- Growth percent, Mean ([60]; mean over the cell panel): 98.11%
- Growth percent, Range ([60]; range over the cell panel): 57.22%
- melting point: 259 to 261 °C
